Measurements: patent US7652070B2, “Treatment method for MMP-implicated pathologies” (priority 2007, dated 2010)

Columns and labels:
[1] = test system: cystinosis patients; conditions: cited from earlier work
[2] = target: MMP-9 (Homo sapiens, UniProt P14780); assay: Breakdown/inhibition of MMP-9 by cysteamine analyzed by zymography; assay type: biochemical; conditions: Michaelis-Mentin kinetics, FIG. 1
Excerpt: FIG. 1 is a table illustrating inhibition of MMP-9 by cysteamine.
FIG. 1 illustrates the result of a laboratory test showing the breakdown of MMP-9 as analyzed by zymography. Because enzymes are structure specific, it can be inferred that there is inhibition of MMP-9 by cysteamine. It is believed that cysteamine inactivates MMP by breaking an important sulfur bond, causing the enzyme to unfold.

[3] = test system: pre-renal transplant cystinotics; conditions: cited from earlier work

Sequence of MMP-9 (P14780 94-707): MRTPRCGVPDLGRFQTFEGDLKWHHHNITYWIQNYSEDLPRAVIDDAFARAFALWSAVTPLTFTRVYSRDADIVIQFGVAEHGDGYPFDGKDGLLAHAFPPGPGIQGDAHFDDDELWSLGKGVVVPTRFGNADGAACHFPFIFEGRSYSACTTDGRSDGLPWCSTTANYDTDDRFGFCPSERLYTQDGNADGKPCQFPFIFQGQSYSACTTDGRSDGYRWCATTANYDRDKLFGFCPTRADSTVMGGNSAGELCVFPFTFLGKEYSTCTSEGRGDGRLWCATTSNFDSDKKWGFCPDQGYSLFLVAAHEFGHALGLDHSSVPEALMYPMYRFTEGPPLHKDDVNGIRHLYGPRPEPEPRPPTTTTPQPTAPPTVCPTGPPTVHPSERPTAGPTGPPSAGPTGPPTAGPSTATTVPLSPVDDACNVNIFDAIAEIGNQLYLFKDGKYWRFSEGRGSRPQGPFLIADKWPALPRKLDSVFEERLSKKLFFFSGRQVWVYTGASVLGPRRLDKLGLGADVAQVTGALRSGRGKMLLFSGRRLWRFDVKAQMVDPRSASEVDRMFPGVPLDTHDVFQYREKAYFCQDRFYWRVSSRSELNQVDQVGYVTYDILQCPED

Row | Compound | efficacy of eye drop concentration ([1]; concentration 0.1%, cystinosis patients) | toxicity of eye drops ([1]; eye drop 0.5%, preserved with benzalkonium, up to 12 times per day, slight burning sensation possible) | Ki [2] [µM] | effect of cysteamine therapy on growth and renal function [3] | toxicity of cysteamine therapy [3]
1 | Cl.NCCS [Cysteamine {HCl}] | effective | no toxicity has not been observed | – | – | –
2 | NCCS [cysteamine, Cysteamine (HSCH2CH2NH2)] | – | – | 530 ± 140 | improved growth and stabilized renal function | without substantial toxicity
